What was measured:
[1] = system: B16 melanocytes; test: Cell viability, MTT reduction test; format: cell-based
Procedure: The melanocytes were seeded in a 96-well plate and were cultured for 24 h (37° C., 5% CO2, DMEM 1 g/L glucose without phenol red supplemented with glucose at 3 g/L, L-glutamine at 2 mM, penicillin at 50 U/mL, streptomycin at 50 μg/mL, foetal calf serum (FCS) at 10%). After incubation, the culture medium was then replaced with culture medium supplemented or not supplemented (unstimulated control) with a stable derivative of α-MSH and containing or not containing (controls) the test compounds or the reference (kojic acid at 25, 100, 400, 800 μg/mL). Each experiment was carried out with n=3, apart from the controls carried out with n=6, then the cells were incubated for 72 h. Wells without cells received in parallel the same quantities of medium supplemented or not supplemented with NDP-MSH and containing or not containing the test compounds or the reference in order to quantify the background noise associated with the presence of the compounds. At the end of the treatment, the cells were incubated in the presence of MTT (tetrazolium salt), the transformation of which to blue crystals of formazan is proportional to the activity of succinate dehydrogenase (mitochondrial enzyme). After dissociation of the cells, the formazan was dissolved in DMSO medium and the optical density (OD), representative of the number of living cells and of their metabolic reactivity, was measured with a microplate reader at 540 nm (VERSAmax, Molecular Devices). The operating conditions are the same as in Example 12.

[2] = system: skin explants (abdominoplasty); test: Histological assessment of the general morphology of skin explants maintained in survival; format: cell-based, human; details: 2 μg/mL in DMSO, after 9 days of survival
Procedure: (§1) 1. Preparation of the explants • During abdominoplasty of a person, 45 skin explants were prepared. The explants were put in BEM medium (BIO-EC's Explants Medium) for survival at 37° C. in humid atmosphere, enriched with 5% CO2.
(§2) 2. Application of the products • The solutions are prepared in DMSO from pure products, in order to obtain final concentrations of […] by incorporating an identical volume of 10 μl in each well and for each treatment. The treatment was carried out in the survival medium on days 0, 1, 2, 5 and 7.
(§3) 3. Taking samples • On D0, the 3 explants of batch TO were taken and each explant was cut in two. One part was fixed in buffered formol for observation of the general morphology. The other was frozen and stored at −80° C. • On D5 and D9, 3 explants from each batch were taken and treated in the same way.
4. […]
5. Microscopic observations • The microscopic observations were carried out by light microscopy and fluorescence microscopy, using a Orthoplan-type Leica microscope, with ×25 objective. The images were recorded with a Sony DXC 390P tri CCD camera and stored using the Leica IM1000 data archiving software. • The general morphology was observed on sections in paraffin after staining with Masson trichrome, Goldner variant according to procedure MO-H-157. […]

[3] = system: collagen I; test: Staining and immunolabelling of skin explant sections: collagen I; format: cell-based, human; details: treated skin explant sections
Procedure: as §1, §2, §3
(§4) 4. Histological treatment • After fixation for 48 hours in buffered formol, the samples were dehydrated and embedded in paraffin using a Leica 1020 automatic dehydrator. They were embedded according to procedure MO-H-153 using a Leica EG 1160 coating station. Sections of 5 μm were prepared according to procedure MO-H-173 using a Minot-type microtome, Leica RM 2125 and mounted on Superfrost® histological glass slides.
(§5) 6. Staining and immunolabelling
(§6) Immunolabelling will be carried out on sections with the appropriate antibody. […]

[4] = system: collagen IV; test: Staining and immunolabelling of skin explant sections: collagen IV; format: cell-based, human; details: treated skin explant sections
Procedure: as §1, §2, §3, §4, §5, §6

[5] = system: collagen VII; test: Staining and immunolabelling of skin explant sections: collagen VII; format: cell-based, human; details: treated skin explant sections
Procedure: as §1, §2, §3, §4, §5, §6

[6] = system: filaggrin; test: In situ immunolabelling of filaggrin in keratinocytes; format: cell-based; details: normal human epidermal keratinocytes
Description: Transglutaminase K, TGK, and filaggrin are two protein markers of epidermal differentiation involved in arrangement of the keratin filaments and formation of the envelope of the stratum corneum.

[7] = system: interleukin-8 (IL-8); test: Release of IL-8 by NCTC-2544 keratinocytes stimulated by PMA; format: cell-based, human; details: NCTC-2544 stimulated by PMA
Procedure: The effects of compound 1 were evaluated on two routes of inflammation, the “chemokine” route and the “prostaglandin” route, by measuring the release of interleukin-8 (IL-8) and of prostaglandin E2 (PGE2) by a human keratinocyte line NCTC-2544 stimulated by phorbol-myristate acetate (PMA).

[8] = target: T1, PPARδ (h) (Homo sapiens, UniProt Q03181); test: PPARδ agonist effect, coactivator Alpha screen; format: biochemical
T1 sequence (Q03181 1-441): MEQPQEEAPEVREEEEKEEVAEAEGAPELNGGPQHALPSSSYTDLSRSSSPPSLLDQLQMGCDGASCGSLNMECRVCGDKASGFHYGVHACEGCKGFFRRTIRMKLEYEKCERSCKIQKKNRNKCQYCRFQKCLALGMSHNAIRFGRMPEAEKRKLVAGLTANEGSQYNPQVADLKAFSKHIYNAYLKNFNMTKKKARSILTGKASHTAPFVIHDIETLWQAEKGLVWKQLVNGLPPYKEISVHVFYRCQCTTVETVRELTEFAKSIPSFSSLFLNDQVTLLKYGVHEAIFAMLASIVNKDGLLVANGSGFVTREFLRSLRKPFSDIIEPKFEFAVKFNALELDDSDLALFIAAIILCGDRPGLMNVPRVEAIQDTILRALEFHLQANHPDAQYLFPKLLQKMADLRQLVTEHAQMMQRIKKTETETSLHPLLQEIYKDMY
Procedure: (§7) The agonist or antagonist activity of compound 1 on the PPAR receptors was tested by fluorescence techniques. • Material and Methods
(§8) The results are expressed as: • percentage of control specific agonist response (measured specific response/control specific agonist response)×100) and • percentage inhibition of the control specific agonist response (100−((measured specific response)/control specific agonist response)×100)) obtained in the presence of compound 1.
(§9) The EC50 values (concentration at which the maximum specific response is 50%) and the IC50 values (concentration at which the maximum control specific agonist response is inhibited by 50%) are determined by non-linear regression analysis of the concentration-response curves with a mean replicated value using adjustment of Hill's equation

[9] = target: T1, PPARδ (h); test: PPARδ antagonist effect, coactivator Alpha screen; format: biochemical
Procedure: as §7, §8, §9
For the antagonists, the apparent dissociation constants (KB) were calculated using the modified Cheng-Prusoff equation

In the case of Oc1ccccc1CCOc1ccc(F)cc1 [Compound 1, 2-[2-(4-fluoro-phenoxy)-ethyl]-phenol], the “Viability (MTT) % stimulated control” value ([1]; 10 μM, B16, 72 h, Table 2) is reported as 83%, the “Viability (MTT) % stimulated control” value ([1]; 30 μM, B16, 72 h, Table 2) is reported as 86% and the “Viability (MTT) % stimulated control” value ([1]; 30 μM, comparison with 2 reference molecules, Table 3) is reported as 85%. The “Viability (MTT) % stimulated control” value ([1]; 100 μM, B16, 72 h, Table 2) was 22%, the “Viability (MTT) % stimulated control” value ([1]; 100 μM, comparison with 2 reference molecules, Table 3) was 13% and the “General morphology: epidermal structure and papillary dermis” value [2] was “very clear epidermal and dermal restructuring activity”. For the same compound, the “Collagen I in the papillary dermis” value [3] was “clear overexpression”, the “Collagen IV along the dermal-epidermal junction” value [4] was “clear overexpression” and the “Collagen VII along the dermal-epidermal junction” value [5] was “moderate overexpression”. The “Protein expression of filaggrin” value [6] was “concentration-dependent stimulation of protein expression”, the “Release of IL-8” value [7] was “without altering” and the “% Control agonist response” value ([8]; 10^−5 M) was 2%. For the same compound, the “% Control agonist response” value ([8]; 10^−6 M) was 4%, the “% Control agonist response” value ([8]; 10^−7 M) was 2% and the “PPARδ agonist activity (conclusion in words)” value ([8]; 10^−7 to 10^−5 M) was “not an agonist”. The inhibition at 10 µM ([9]; 10^−5 M, read-out: % Inhibition of control agonist response) was -5%, the inhibition at 1 µM ([9]; 10^−6 M, read-out: % Inhibition of control agonist response) was -2% and the inhibition at 0.1 µM ([9]; 10^−7 M, read-out: % Inhibition of control agonist response) was 0%. The “PPARδ antagonist activity (conclusion in words)” value ([9]; 10^−7 to 10^−5 M) was “not an antagonist”.

From patent US20150004110A1, “NOVEL ANTI-AGING AND DEPIGMENTING COSMETIC COMPOSITIONS” (DIVERCHIM, priority 2011, published 2015)
